Test results from paper PMC9007292, “8‐Prenylnaringenin tissue distribution and pharmacokinetics in mice and its binding to human serum albumin and cellular uptake in human embryonic kidney cells” (Food Science & Nutrition, 2022).
Values joined by “and” are separate entries in the source; they are usually repeats but may differ in a detail not shown here. Equal entries are not always repeated.

What was measured:
site II of HSA = site II of HSA (Homo sapiens, UniProt P02768); experiment: Fluorescence competitive binding assay with site‐selective probe BD140; conditions: for inhibition at 100 µM: human, defatted human serum albumin (HSA) in phosphate buffer, pH 7.4, probe BD140; for Competitive inhibition rate of the probe binding, Site II: BD140 probe, 100 µM, n = 3, mean ± SE
Chain of site II of HSA (P02768 25-609): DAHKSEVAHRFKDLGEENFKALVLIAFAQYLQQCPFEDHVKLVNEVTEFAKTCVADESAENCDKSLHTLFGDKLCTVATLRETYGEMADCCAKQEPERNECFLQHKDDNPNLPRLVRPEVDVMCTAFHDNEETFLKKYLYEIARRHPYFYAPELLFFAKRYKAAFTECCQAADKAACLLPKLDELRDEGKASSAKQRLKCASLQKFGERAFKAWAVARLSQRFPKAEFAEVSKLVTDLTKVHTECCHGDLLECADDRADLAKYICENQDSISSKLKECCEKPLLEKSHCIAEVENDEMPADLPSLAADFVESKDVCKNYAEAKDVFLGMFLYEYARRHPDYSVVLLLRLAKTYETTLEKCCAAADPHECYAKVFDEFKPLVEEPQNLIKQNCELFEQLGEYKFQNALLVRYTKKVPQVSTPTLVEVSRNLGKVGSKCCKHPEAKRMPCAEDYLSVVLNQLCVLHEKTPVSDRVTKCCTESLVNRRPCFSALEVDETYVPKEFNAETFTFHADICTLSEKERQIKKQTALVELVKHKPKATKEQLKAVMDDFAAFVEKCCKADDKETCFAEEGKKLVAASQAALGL
Procedure: (§1) A fluorescent dye cocktail containing 0.33 mM BD140 and 1 mM DNSA was prepared in DMSO. Defatted HSA (A3782‐1G; Sigma‐Aldrich) was dissolved in phosphate buffer (pH 7.4) at a concentration of 0.67 mg/ml. Each flavonoid was dissolved in DMSO (stock solution) at 100 times the test concentration. Subsequently, 637 µl HSA solution, 6.5 µl fluorescent dye cocktail, and 6.5 µl flavonoid were mixed and divided into three wells on a 96‐well multi‐black plate. The final concentration of flavonoids was 1–100 μM. […] The HSA‐binding affinities of the flavonoids were evaluated by measuring the competitive inhibition rate of the probes binding to flavonoids according to Equation (1): (1) Flavonoidinhibitionpercentage(%)=F1‐F2/F1×100, where F 1 is the fluorescence intensity of DMSO and F 2 represents the fluorescence intensity of each flavonoid.

site I of HSA = site I of HSA (Homo sapiens, UniProt P02768); experiment: Fluorescence competitive binding assay with site‐selective probe DNSA; conditions: for inhibition at 100 µM: human, defatted human serum albumin (HSA) in phosphate buffer, pH 7.4, probe dansylamide (DNSA); for Inhibition ratio, site I / Competitive inhibition rate of the probe binding, Site I: DNSA probe; for Competitive inhibition rate of the probe binding, Site I: 100 µM, n = 3, mean ± SE
Chain of site I of HSA (P02768 25-609): as above
Procedure: as §1

[1] = Tissue distribution after 22 days of 8‐PN or naringenin mixed diet; assay type: in vivo, C57/BL6 mice; conditions: for Percentage of aglycone in the liver: aglycone to total; for 8‐PN aglycone in the liver: without deconjugation
Excerpt: We planned the nutritional composition and feeding period according to previous similar research (Andres-Lacueva et al., [2012]; Bieger et al., [2008]; Boer et al., [2005]; Mukai et al., [2013]; Takumi et al., [2011]). […] Though this dose concentration may not be achieved through regular diet or supplementation, this concentration was used in accordance with previous studies that evaluated the tissue distribution of flavonoids (0.2% [w/w]) (Mukai et al., [2013]; Takumi et al., [2011]). The mice were fed each diet via normal oral feeding for 22 days. In the pharmacokinetic study (Section 2.5), we administered each nutrient to mice at a dose of 50 mg/kg body weight (BW) via oral gavage after 18 h of starvation. Although this dose concentration may not reflect regular diet or supplementation, this or higher concentrations have been applied for pharmacokinetic study of flavonoids (Bai et al., [2020]; Hung et al., [2018]; Mukai et al., [2013]). All experimental protocols were approved by the Committee on Animal Experiments of Tokushima University (approval number: 11013). All efforts were made to minimize animal suffering. Seven-week-old male C57/BL6 mice (Japan SLC) were housed in a room maintained at 23 ± 1°C under a 12-h/12-h light/dark cycle. Diets consisted of 8-PN or naringenin (0.56 mmol/kg diet) mixed with AIN-93M (AIN-93M; Oriental Yeast Company), with the cellulose contents reduced to adjust the composition of other nutrients. The mice (n = 7 or 8) were fed these diets via normal oral feeding for 22 days and allowed free access to water. The liver, kidneys, quadricep muscles, pancreas, lungs, brain, spleen, and heart were collected from the mice under anesthesia and weighed. Before freezing, the liver tissues were flushed with ice-cold phosphate-buffered saline (PBS, pH 7.4) to avoid blood contamination. All samples were stored at -80°C under N2 gas until extraction of flavonoid. Sample preparation was performed according to a previous report (Mukai et al., [2013]). Each tissue was homogenized in PBS on ice (nine times the volume of the tissue wet weight) using a Teflon homogenizer (As One). […] The hydrolysates were then subjected to extraction three times with equal volumes of ethyl acetate and evaporated using a centrifugal evaporator (CVE-100; Tokyo Rikakikai). The extracts were dissolved in 50 μl of methanol containing 0.5% phosphoric acid. Then, 20 μl from each sample was injected into the HPLC-UV system. […] Shimadzu) with a Cadenza CD-C18 HPLC column (3 μm, 4.6 × 150 mm; […]). […] 8-PN and naringenin amounts were determined using an internal standard method. […] Since a clear peak was actually detected for 8-PN over 2 pmol (0.1 μM), and for naringenin over 4 pmol (0.2 μM) based on visual evaluation, we determined these concentrations were the LODs for each flavonoid.

[2] = design: method as in Rad et al., 2006; conditions: postmenopausal women, mostly conjugated metabolites, ref Rad et al., 2006; cited from earlier work

Structure (SMILES) | inhibition at 100 µM (site II of HSA) [%] | inhibition at 100 µM (site I of HSA) [%] | Inhibition ratio, site I (site I of HSA; 1 µM) [%] | Inhibition ratio, site I (site I of HSA; 50 µM) [%] | Competitive inhibition rate of the probe binding, Site II (site II of HSA) | Competitive inhibition rate of the probe binding, Site I (site I of HSA) | further results
O=C1C[C@@H](c2ccc(O)cc2)Oc2cc(O)cc(O)c21 [Naringenin] | 8.3 ± 3.9 | 25.3 ± 0.4 | – | – | – | – | –
CC(C)=CCc1c(O)cc(O)c2c1O[C@H](c1ccc(O)cc1)CC2=O [8‐PN, 8‐Prenylnaringenin] | 28.3 ± 2.8 | 61.1 ± 0.6 | 10.3 | 36.7 | – | – | Percentage of aglycone in the liver ([1]; average of 7 mice): 11.7%; 8‐PN aglycone in the liver ([1]; average of 7 mice): 1.58 nmol/g wet tissue; Percentage of aglycone in the liver ([1]; individual mice #1-7): 15.9% and 20.9% and 9.5% and 6.3% and 7.8% and 5.7% and 15.7%; 8‐PN aglycone in the liver ([1]; individual mice #1-7, 22 days diet): 0.62 nmol/g wet tissue and 3.23 nmol/g wet tissue and 1.62 nmol/g wet tissue and 1.50 nmol/g wet tissue and 0.66 nmol/g wet tissue and 1.18 nmol/g wet tissue and 2.24 nmol/g wet tissue; Time of absorption into the bloodstream after oral administration [2]: 1 to 1.5 h
CC(C)=CCc1c(O[C@@H]2O[C@H](C(=O)O)[C@@H](O)[C@H](O)[C@H]2O)cc(O)c2c1OC(c1ccc(O)cc1)CC2=O (stereo partly shown) [8‐PN‐7G, 8‐PN 7‐glucuronide] | – | – | 12.8 | 37.9 | n.d. ^a (The result without competitive inhibition (≤0) with the fluorescent probe is shown as not determined (n.d.)) | 37.2 ± 0.6 % | Binding constant to HSA (site I of HSA; from competition profile for site I (Figure 3)): 24200 M
O=C1C[C@@H](c2ccc(O)cc2)Oc2cc(O[C@@H]3O[C@H](C(=O)O)[C@@H](O)[C@H](O)[C@H]3O)cc(O)c21 [N7G, naringenin 7‐glucuronide, reference compound] | – | – | – | – | 9.6 ± 4.8% | 10.0 ± 3.0% | –
O=C1C[C@@H](c2ccc(O[C@@H]3O[C@H](C(=O)O)[C@@H](O)[C@H](O)[C@H]3O)cc2)Oc2cc(O)cc(O)c21 [N4′G, Naringenin 4′‐glucuronide, reference compound] | – | – | – | – | 2.4 ± 2.4% | 5.2 ± 2.8% | –
CC(C)=CCc1c(O)cc(O)c2c1OC(c1ccc(O[C@@H]3O[C@H](C(=O)O)[C@@H](O)[C@H](O)[C@H]3O)cc1)CC2=O (stereo partly shown) [8‐PN‐4′G, 8‐PN 4′‐glucuronide] | – | – | – | – | n.d. ^a (The result without competitive inhibition (≤0) with the fluorescent probe is shown as not determined (n.d.)) | n.d. ^a (The result without competitive inhibition (≤0) with the fluorescent probe is shown as not determined (n.d.)) | –
